Experimental data as given in patent US20060183802A1, “Compositions and methods for treating amyotrophic lateral sclerosis (ALS)” (priority 2004, published 2006).
Converted amounts (≈) assume the structure as drawn.

What was measured:
[1] = system: SOD (wild type and A4V, G85R and G37R mutants); assay: Copper/H2O2-induced oxidative aggregation of demetallated SOD after Cys-111 modification, monitored by light scattering; type: biochemical, human
Protocol: Unmodified SOD aggregation. SOD aggregation of SOD with an umodified Cys-111 residue was achieved by mixing 10 μM SOD with 0.8 mM copper sulfate (CuSO4) and 10 mM hydrogen peroxide (H2O2) in 20 mM Tris at 37° C. (pH 7.4). SOD aggregation of SOD modified at the Cys-111 residue.
Modified (Blocked […] Residue) aggregation. Treatment with iodoacetate and DTNB was carried out at 0.73 mg/ml demetallated SOD, 20 mM Tris, 20 mM phosphate with 10 mM modifying reagent in each at pH 7.4 and room temperature for one hour. In the case of DTNB treatment, both protein solution and the buffer were nitrogen fused prior to the reaction. Modified SOD samples were then dialyzed against 20 mM Tris buffer at pH 7.8 in room temperature. All of the modified SOD samples were prepared fresh just before inducing oxidation with copper (0.8 mM) and hydrogen peroxide (10 mM).
Kinetic Studies of modified and unmodified SOD aggregation. To monitor the kinetics of aggregation, the SOD solution was equilibrated in a quartz cuvette at 37° C. for 5 min within the sample chamber of a Hitachi F-4500 fluorimeter, at which point a freshly made solution containing the CuSO4, H2O2, and Tris was added. Using a small stir bar, the solution was mixed for 5 s, and the light scattered at a 90° angle was immediately monitored for 1 h at an excitation and emission wavelengths of 350 with 2.5 nm slit width. […]

[2] = system: Cu/Zn superoxide dismutase; settings: rat liver, dietary administration; cited from earlier work
[3] = system: mouse models; settings: dietary administration; cited from earlier work
[4] = system: cardiomyopathic hamsters; settings: dietary administration; cited from earlier work
[5] = according to MSDS; cited from earlier work
[6] = system: SOD; assay: In vitro oxidative aggregation of SOD in presence of orotate; type: biochemical, human
Text: The scope of the current study that led to the discovery of anti-aggregation effect of orotate was based the inventor's aggregation model involving the open dimers (FIG. 9) as discussed in Example 2.

In the case of `O=C(O)c1cc(SSc2ccc([N+](=O)[O-])c(C(=O)O)c2)ccc1[N+](=O)[O-]` [DTNB, dithionitro benzoic acid], the “aggregation of SOD after treatment with sulfhydryl blocking reagent” value ([1]; 10 mM modifying reagent, pH 7.4, one hour, then 0.8 mM copper, 10 mM H2O2, WT, A4V, G85R, G37R apo SOD) was “inhibited”.
For `O=C(O)c1cc(=O)[nH]c(=O)[nH]1` [orotic acid], the “Cu/Zn superoxide dismutase mRNA level” value [2] is listed as “reduction”, the SOD activity [2] is listed as “corresponding reduction” and the “memory and synaptic long-term potentiation” value [3] is listed as “improve memory and synaptic long-term potentiation”. For the same compound, the “conditions of cardiomyopathic hamsters” value [4] was “improve”, the solubility in water [5] was 7 mM (≈ 1090 µg/mL) and the “anti-aggregation activity across SOD variants” value ([6]; different variants of SOD with different extent of dimer opening) was “different level of anti-aggregation activity in different variants of SOD”. The “effect on in vitro oxidative aggregation of SOD” value ([6]; in vitro oxidative aggregation) was “inhibition of in vitro oxidative aggregation”.
For `O=C(O)CI` [iodoacetate], the “aggregation of SOD after treatment with sulfhydryl blocking reagent” value ([1]; pH 7.4) was “inhibited”.
